Experimental data reported in ChEMBL document CHEMBL3044937, “Design, synthesis and acaricidal activity of novel strobilurin derivatives containing pyrimidine moieties” (2010).

What was measured:
Type in all cases: functional
[1] = tested on: Tetranychus cinnabarinus; assay: Acaricidal activity against Tetranychus cinnabarinus (carmine spider mite) infected kidney bean leaf assessed as mortality at 10 mg/l measured after 48 hr in greenhouse conditions relative to control
[2] = tested on: Tetranychus cinnabarinus; assay: Acaricidal activity against Tetranychus cinnabarinus (carmine spider mite) infected kidney bean leaf assessed as mortality at 40 mg/l measured after 48 hr in greenhouse conditions relative to control
[3] = tested on: Tetranychus cinnabarinus; assay: Acaricidal activity against Tetranychus cinnabarinus (carmine spider mite) infected kidney bean leaf assessed as mortality at 600 mg/l measured after 48 hr in greenhouse conditions relative to control
[4] = tested on: Tetranychus cinnabarinus; assay: Acaricidal activity against Tetranychus cinnabarinus (carmine spider mite) infected kidney bean plant assessed as mortality at 50 g a.i./ha measured after 21 days in field conditions relative to control; conditions: 504 h
[5] = tested on: Tetranychus cinnabarinus; assay: Acaricidal activity against Tetranychus cinnabarinus (carmine spider mite) infected kidney bean plant assessed as mortality at 50 g a.i./ha measured after 14 days in field conditions relative to control; conditions: 336 h
[6] = tested on: Tetranychus cinnabarinus; assay: Acaricidal activity against Tetranychus cinnabarinus (carmine spider mite) infected kidney bean plant assessed as mortality at 50 g a.i./ha measured after 7 days in field conditions relative to control; conditions: 168 h
[7] = tested on: Tetranychus cinnabarinus; assay: Acaricidal activity against Tetranychus cinnabarinus (carmine spider mite) infected kidney bean plant assessed as mortality at 50 g a.i./ha measured after 3 days in field conditions relative to control; conditions: 72 h
[8] = tested on: Tetranychus cinnabarinus; assay: Acaricidal activity against Tetranychus cinnabarinus (carmine spider mite) infected kidney bean plant assessed as mortality at 100 g a.i./ha measured after 21 days in field conditions relative to control; conditions: 504 h
[9] = tested on: Tetranychus cinnabarinus; assay: Acaricidal activity against Tetranychus cinnabarinus (carmine spider mite) infected kidney bean plant assessed as mortality at 100 g a.i./ha measured after 14 days in field conditions relative to control; conditions: 336 h
[10] = tested on: Tetranychus cinnabarinus; assay: Acaricidal activity against Tetranychus cinnabarinus (carmine spider mite) infected kidney bean plant assessed as mortality at 100 g a.i./ha measured after 7 days in field conditions relative to control; conditions: 168 h
[11] = tested on: Tetranychus cinnabarinus; assay: Acaricidal activity against Tetranychus cinnabarinus (carmine spider mite) infected kidney bean plant assessed as mortality at 100 g a.i./ha measured after 3 days in field conditions relative to control; conditions: 72 h
[12] = tested on: Tetranychus cinnabarinus; assay: Acaricidal activity against Tetranychus cinnabarinus (carmine spider mite) infected kidney bean plant assessed as mortality at 200 g a.i./ha measured after 3 days in field conditions relative to control; conditions: 72 h
[13] = tested on: Tetranychus cinnabarinus; assay: Acaricidal activity against Tetranychus cinnabarinus (carmine spider mite) infected kidney bean plant assessed as mortality at 200 g a.i./ha measured after 21 days in field conditions relative to control; conditions: 504 h
[14] = tested on: Tetranychus cinnabarinus; assay: Acaricidal activity against Tetranychus cinnabarinus (carmine spider mite) infected kidney bean plant assessed as mortality at 200 g a.i./ha measured after 14 days in field conditions relative to control; conditions: 336 h
[15] = tested on: Tetranychus cinnabarinus; assay: Acaricidal activity against Tetranychus cinnabarinus (carmine spider mite) infected kidney bean plant assessed as mortality at 200 g a.i./ha measured after 7 days in field conditions relative to control; conditions: 168 h

Structure (SMILES) | mortality at 10 µg/mL [1] [%] | mortality at 40 µg/mL [2] [%] | mortality at 600 µg/mL [3] [%] | other results
CO/C=C(/C(=O)OC)c1ccccc1COc1cc(C(F)(F)F)nc(NC2CCCCC2)n1 | 70 | 100 |  | 
CO/C=C(/C(=O)OC)c1ccccc1COc1cc(C(F)(F)F)nc(NCc2ccccc2)n1 | 28 | 65 |  | 
CO/C=C(/C(=O)OC)c1ccccc1COc1cc(C(F)(F)F)nc(NCc2ccccc2Cl)n1 | 32 | 81 |  | 
CO/C=C(/C(=O)OC)c1ccccc1COc1cc(C(F)(F)F)nc(N2CCOCC2)n1 | 0 | 70 |  | 
CO/C=C(/C(=O)OC)c1ccccc1COc1cc(C)nc(Nc2ccccc2)n1 | 0 | 0 | 90 | 
CO/C=C(/C(=O)OC)c1ccccc1COc1nc(Nc2ccccc2)nc(C)c1C | 0 | 0 | 0 | 
CO/C=C(/C(=O)OC)c1ccccc1COc1cc(C2CC2)nc(Nc2ccccc2)n1 | 0 | 0 | 90 | 
CO/N=C(/C(=O)OC)c1ccccc1COc1cc(C(F)(F)F)nc(Nc2ccccc2)n1 | 0 | 0 | 100 | 
COC(=O)N(OC)c1ccccc1COc1cc(C(F)(F)F)nc(Nc2ccccc2)n1 | 0 | 0 | 0 | 
CNC(=O)/C(=N/OC)c1ccccc1COc1cc(C(F)(F)F)nc(Nc2ccccc2)n1 | 0 | 0 | 0 | 
CNC(=O)N(OC)c1ccccc1COc1cc(C(F)(F)F)nc(Nc2ccccc2)n1 | 0 | 0 | 0 | 
CNc1nc(OCc2ccccc2/C(=C\OC)C(=O)OC)cc(C(F)(F)F)n1 | 0 | 0 |  | 
CCNc1nc(OCc2ccccc2/C(=C\OC)C(=O)OC)cc(C(F)(F)F)n1 | 0 | 0 |  | 
CO/C=C(/C(=O)OC)c1ccccc1COc1cc(C(F)(F)F)nc(N(C)C)n1 | 0 | 0 |  | 
CCN(CC)c1nc(OCc2ccccc2/C(=C\OC)C(=O)OC)cc(C(F)(F)F)n1 | 21 | 65 |  | 
CO/C=C(/C(=O)OC)c1ccccc1COc1cc(C(F)(F)F)nc(NC(C)C)n1 | 64 | 95 |  | 
CO/C=C(/C(=O)OC)c1ccccc1COc1cc(C(F)(F)F)nc(NC2CC2)n1 | 0 | 0 |  | 
CO/C=C(/C(=O)OC)c1ccccc1COc1cc(C(F)(F)F)nc(N2CCCCC2)n1 | 0 | 0 |  | 
CO/C=C(/C(=O)OC)c1ccccc1COc1cc(C(F)(F)F)nc(OC(C)C)n1 | 95 | 100 | 100 | mortality at 50 g/ha [4]: 98.2%; mortality at 50 g/ha [5]: 93.2%; mortality at 50 g/ha [6]: 77.6%; mortality at 50 g/ha [7]: 100%; mortality at 100 g/ha [8]: 97.9%; mortality at 100 g/ha [9]: 90.4%; mortality at 100 g/ha [10]: 88%; mortality at 100 g/ha [11]: 100%
CO/C=C(/C(=O)OC)c1ccccc1COc1cc(C(F)(F)F)nc(Nc2ccccc2)n1 | 85 | 100 | 100 | mortality at 200 g/ha [12]: 92.2%; mortality at 50 g/ha [4]: 57.5%; mortality at 50 g/ha [5]: 87.2%; mortality at 50 g/ha [6]: 65.3%; mortality at 50 g/ha [7]: 62.3%; mortality at 100 g/ha [8]: 94.9%; mortality at 100 g/ha [9]: 91.8%; mortality at 100 g/ha [10]: 53.1%; mortality at 100 g/ha [11]: 78.3%; mortality at 200 g/ha [13]: 100%; mortality at 200 g/ha [14]: 100%; mortality at 200 g/ha [15]: 96.4%
